In PubChem BioAssay AID651630 (Sanford-Burnham Center for Chemical Genomics, 2012):
The source made the active and inactive calls.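 The calls were made as follows: active = lipid-stain IC50 at or below a set limit, with nuclear-stain toxicity IC50 at least five times higher; inactive = the rest.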

How the values were obtained:
TAG = assay: triacylglycerol accumulation inhibitor potency, dose response, cell-based, panel, Nile Red and DAPI fluorescence, H9c2 (AID 651630); conditions: H9c2 cells, Nile Red TAG fluorescence, oleic acid;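 also: cells exposed to compound overnight before fixation and staining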
DAPI = assay: as above; conditions: H9c2 cells, DAPI nuclear fluorescence (cytotoxicity counter-readout), oleic acid

## Cc1cc(N2CCN(Cc3cn(C)nc3-c3cccc(Cl)c3)CC2)cc(C)n1
TAG; run 1
  IC50: > 25 µM
TAG; run 2
  IC50: 22.5 µM
DAPI; mean of runs
  IC50 cytotoxicity (DAPI nuclear signal decrease): > 25 µM (inactive)
DAPI; run 1
  IC50 cytotoxicity (DAPI nuclear signal decrease): > 25 µM
DAPI; run 2
  IC50 cytotoxicity (DAPI nuclear signal decrease): > 25 µM

## O=[N+]([O-])c1ccc(Nc2nc(NC3CCCCC3)nc(N3CCCC3)n2)cc1
TAG; run 1
  IC50: > 25 µM
TAG; run 2
  IC50: 11.1 µM
DAPI; mean of runs
  IC50 cytotoxicity (DAPI nuclear signal decrease): > 25 µM (inactive)
DAPI; run 1
  IC50 cytotoxicity (DAPI nuclear signal decrease): > 25 µM
DAPI; run 2
  IC50 cytotoxicity (DAPI nuclear signal decrease): > 25 µM

## CCCCc1ccc(N=N/C(C(=O)Nc2cc(OC)c(NC(C)=O)cc2OC)=C(/C)O)cc1
TAG; mean of runs
  IC50: 10.1 µM
TAG; run 1
  IC50: 11.4 µM
TAG; run 2
  IC50: 8.79 µM
DAPI; mean of runs
  IC50 cytotoxicity (DAPI nuclear signal decrease): > 25 µM (inactive)
DAPI; run 1
  IC50 cytotoxicity (DAPI nuclear signal decrease): > 25 µM
DAPI; run 2
  IC50 cytotoxicity (DAPI nuclear signal decrease): > 25 µM

## CCCCCc1cc(=O)oc2c(C(CCN(CC)CC)c3ccc(OC)cc3)c(OC)cc(OC)c12 (centres undefined)
TAG; mean of runs
  IC50: > 25 µM (inactive)
TAG; run 1
  IC50: > 25 µM
TAG; run 2
  IC50: > 25 µM
DAPI; mean of runs
  IC50 cytotoxicity (DAPI nuclear signal decrease): > 25 µM (inactive)
DAPI; run 1
  IC50 cytotoxicity (DAPI nuclear signal decrease): > 25 µM
DAPI; run 2
  IC50 cytotoxicity (DAPI nuclear signal decrease): > 25 µM

## Cc1cc(NC(=O)c2ccccc2F)n(-c2nc3ccccc3[nH]2)n1
TAG; mean of runs
  IC50: 16.8 µM (inactive)
TAG; run 1
  IC50: 16.8 µM
TAG; run 2
  IC50: 16.9 µM
DAPI; mean of runs
  IC50 cytotoxicity (DAPI nuclear signal decrease): > 25 µM (inactive)
DAPI; run 1
  IC50 cytotoxicity (DAPI nuclear signal decrease): > 25 µM
DAPI; run 2
  IC50 cytotoxicity (DAPI nuclear signal decrease): > 25 µM

## Cc1c(C#N)c(O)n(CCO)c(=O)c1N=Nc1ccc2c(c1)COC2=O
TAG; mean of runs
  IC50: 16.5 µM (inactive)
TAG; run 1
  IC50: 14.3 µM
TAG; run 2
  IC50: 18.6 µM
DAPI; mean of runs
  IC50 cytotoxicity (DAPI nuclear signal decrease): 19.9 µM (inactive)
DAPI; run 1
  IC50 cytotoxicity (DAPI nuclear signal decrease): 24.4 µM
DAPI; run 2
  IC50 cytotoxicity (DAPI nuclear signal decrease): 15.3 µM

## CCOC(=O)c1cc(-c2ccccc2)sc1NC(=S)Nc1cccc(C)n1
TAG; mean of runs
  IC50: > 25 µM (inactive)
TAG; run 1
  IC50: > 25 µM
TAG; run 2
  IC50: > 25 µM
DAPI; mean of runs
  IC50 cytotoxicity (DAPI nuclear signal decrease): > 25 µM (inactive)
DAPI; run 1
  IC50 cytotoxicity (DAPI nuclear signal decrease): > 25 µM
DAPI; run 2
  IC50 cytotoxicity (DAPI nuclear signal decrease): > 25 µM

## CCCCCc1cc(=O)oc2c(C(CCN3CCCC3)c3cc(OC)c(OC)c(OC)c3)c(OC)cc(OC)c12 (centres undefined)
TAG; run 1
  IC50: > 25 µM
TAG; run 2
  IC50: 17.4 µM
DAPI; mean of runs
  IC50 cytotoxicity (DAPI nuclear signal decrease): 20.2 µM (inactive)
DAPI; run 1
  IC50 cytotoxicity (DAPI nuclear signal decrease): 20.1 µM
DAPI; run 2
  IC50 cytotoxicity (DAPI nuclear signal decrease): 20.2 µM

## O=C(c1ccoc1)N1CCN(c2cc(-c3cccc(F)c3)nc3cc(-c4cccc(Cl)c4)nn23)CC1
TAG; mean of runs
  IC50: > 25 µM (inactive)
TAG; run 1
  IC50: > 25 µM
TAG; run 2
  IC50: > 25 µM
DAPI; mean of runs
  IC50 cytotoxicity (DAPI nuclear signal decrease): > 25 µM (inactive)
DAPI; run 1
  IC50 cytotoxicity (DAPI nuclear signal decrease): > 25 µM
DAPI; run 2
  IC50 cytotoxicity (DAPI nuclear signal decrease): > 25 µM

## O=C(CCC(=O)N1CCOc2ccc(Cl)cc21)NCCCN1CCC(Cc2ccccc2)CC1
TAG; run 1
  IC50: > 25 µM
TAG; run 2
  IC50: 9.91 µM
DAPI; mean of runs
  IC50 cytotoxicity (DAPI nuclear signal decrease): 15.1 µM (inactive)
DAPI; run 1
  IC50 cytotoxicity (DAPI nuclear signal decrease): 16 µM
DAPI; run 2
  IC50 cytotoxicity (DAPI nuclear signal decrease): 14.2 µM

## C=CCn1c(N)c(C(=O)Nc2ccccc2)c2nc3ccccc3nc21
TAG; mean of runs
  IC50: 6.11 µM
TAG; run 1
  IC50: 6.18 µM
TAG; run 2
  IC50: 6.04 µM
DAPI; mean of runs
  IC50 cytotoxicity (DAPI nuclear signal decrease): > 25 µM (inactive)
DAPI; run 1
  IC50 cytotoxicity (DAPI nuclear signal decrease): > 25 µM
DAPI; run 2
  IC50 cytotoxicity (DAPI nuclear signal decrease): > 25 µM

## CC(C)C[C@H]1C(=O)N2CCC[C@H]2[C@]2(O)O[C@](NC(=O)C3C=C4c5cccc6[nH]c(Br)c(c56)C[C@H]4N(C)C3)(C(C)C)C(=O)N12 (some centres undefined)
TAG; mean of runs
  IC50: 6.4 µM
TAG; run 1
  IC50: 5.42 µM
TAG; run 2
  IC50: 7.37 µM
DAPI; mean of runs
  IC50 cytotoxicity (DAPI nuclear signal decrease): > 25 µM (inactive)
DAPI; run 1
  IC50 cytotoxicity (DAPI nuclear signal decrease): > 25 µM
DAPI; run 2
  IC50 cytotoxicity (DAPI nuclear signal decrease): > 25 µM

## COc1ccccc1Nc1nnc(SCC(=O)Nc2nc(-c3ccc(F)cc3)cs2)s1
TAG; mean of runs
  IC50: > 25 µM (inactive)
TAG; run 1
  IC50: > 25 µM
TAG; run 2
  IC50: > 25 µM
DAPI; mean of runs
  IC50 cytotoxicity (DAPI nuclear signal decrease): > 25 µM (inactive)
DAPI; run 1
  IC50 cytotoxicity (DAPI nuclear signal decrease): > 25 µM
DAPI; run 2
  IC50 cytotoxicity (DAPI nuclear signal decrease): > 25 µM

## COC(=O)C=C1CCC2C3CCC4=CC(=O)C(Br)CC4(C)C3C(=O)CC12C (centres undefined)
TAG; mean of runs
  IC50: 9.84 µM
TAG; run 1
  IC50: 9.51 µM
TAG; run 2
  IC50: 10.2 µM
DAPI; run 1
  IC50 cytotoxicity (DAPI nuclear signal decrease): > 25 µM
DAPI; run 2
  IC50 cytotoxicity (DAPI nuclear signal decrease): 22.3 µM

## CCOc1ccc(CN(C)C(=O)CCl)cc1
TAG; run 1
  IC50: > 25 µM
TAG; run 2
  IC50: 22.6 µM
DAPI; mean of runs
  IC50 cytotoxicity (DAPI nuclear signal decrease): > 25 µM (inactive)
DAPI; run 1
  IC50 cytotoxicity (DAPI nuclear signal decrease): > 25 µM
DAPI; run 2
  IC50 cytotoxicity (DAPI nuclear signal decrease): > 25 µM

## CSc1cc(-c2ccccc2)n(Cc2c(Cl)cccc2Cl)c(=O)c1C#N
TAG; run 1
  IC50: 17.9 µM
TAG; run 2
  IC50: > 25 µM
DAPI; mean of runs
  IC50 cytotoxicity (DAPI nuclear signal decrease): > 25 µM (inactive)
DAPI; run 1
  IC50 cytotoxicity (DAPI nuclear signal decrease): > 25 µM
DAPI; run 2
  IC50 cytotoxicity (DAPI nuclear signal decrease): > 25 µM

## Cc1ccccc1OCCNc1cc(N2CC(C)NC(C)C2)ccc1[N+](=O)[O-] (centres undefined)
TAG; mean of runs
  IC50: 13.1 µM
TAG; run 1
  IC50: 14.6 µM
TAG; run 2
  IC50: 11.6 µM
DAPI; mean of runs
  IC50 cytotoxicity (DAPI nuclear signal decrease): > 25 µM (inactive)
DAPI; run 1
  IC50 cytotoxicity (DAPI nuclear signal decrease): > 25 µM
DAPI; run 2
  IC50 cytotoxicity (DAPI nuclear signal decrease): > 25 µM

## COc1ccc2nc(NC(=O)c3cccc(OCc4c(C)noc4C)c3)sc2c1
TAG; mean of runs
  IC50: 17.6 µM (inactive)
TAG; run 1
  IC50: 17.4 µM
TAG; run 2
  IC50: 17.8 µM
DAPI; mean of runs
  IC50 cytotoxicity (DAPI nuclear signal decrease): > 25 µM (inactive)
DAPI; run 1
  IC50 cytotoxicity (DAPI nuclear signal decrease): > 25 µM
DAPI; run 2
  IC50 cytotoxicity (DAPI nuclear signal decrease): > 25 µM

## O=C(Nc1cccc(-c2csc(Nc3cccc(C(F)(F)F)c3)n2)c1)c1cc([N+](=O)[O-])cc(C(F)(F)F)c1
TAG; mean of runs
  IC50: > 25 µM (inactive)
TAG; run 1
  IC50: > 25 µM
TAG; run 2
  IC50: > 25 µM
DAPI; mean of runs
  IC50 cytotoxicity (DAPI nuclear signal decrease): > 25 µM (inactive)
DAPI; run 1
  IC50 cytotoxicity (DAPI nuclear signal decrease): > 25 µM
DAPI; run 2
  IC50 cytotoxicity (DAPI nuclear signal decrease): > 25 µM

## COCCN1Cc2cccc(C(=O)Nc3cccc(-c4nc5ccccc5[nH]4)c3)c2C1=O
TAG; mean of runs
  IC50: 1.96 µM
TAG; run 1
  IC50: 1.26 µM
TAG; run 2
  IC50: 2.66 µM
DAPI; run 1
  IC50 cytotoxicity (DAPI nuclear signal decrease): > 25 µM
DAPI; run 2
  IC50 cytotoxicity (DAPI nuclear signal decrease): > 25 µM

## O=c1c2c3nc4ccccc4nc3n(/N=C/c3ccccn3)c2ncn1-c1ccccc1
TAG; mean of runs
  IC50: 2.48 µM
TAG; run 1
  IC50: 3.37 µM
TAG; run 2
  IC50: 1.59 µM
DAPI; run 1
  IC50 cytotoxicity (DAPI nuclear signal decrease): > 25 µM
DAPI; run 2
  IC50 cytotoxicity (DAPI nuclear signal decrease): > 25 µM

## CCCOC(=O)c1ccc(NC(=O)CCOc2ccccc2)cc1
TAG; mean of runs
  IC50: 21.5 µM (inactive)
TAG; run 1
  IC50: 18.2 µM
TAG; run 2
  IC50: 24.7 µM
DAPI; mean of runs
  IC50 cytotoxicity (DAPI nuclear signal decrease): > 25 µM (inactive)
DAPI; run 1
  IC50 cytotoxicity (DAPI nuclear signal decrease): > 25 µM
DAPI; run 2
  IC50 cytotoxicity (DAPI nuclear signal decrease): > 25 µM

## CCC(C)Nc1nc(-c2cccc(OC)c2O)nc2ccccc12 (centres undefined)
TAG; mean of runs
  IC50: > 25 µM (inactive)
TAG; run 1
  IC50: > 25 µM
TAG; run 2
  IC50: > 25 µM
DAPI; mean of runs
  IC50 cytotoxicity (DAPI nuclear signal decrease): > 25 µM (inactive)
DAPI; run 1
  IC50 cytotoxicity (DAPI nuclear signal decrease): > 25 µM
DAPI; run 2
  IC50 cytotoxicity (DAPI nuclear signal decrease): > 25 µM

## CN1CCCC(n2nc(Cc3ccc(Cl)cc3)c3ccccc3c2=O)CC1 (centres undefined)
TAG; mean of runs
  IC50: 18.3 µM (inactive)
TAG; run 1
  IC50: 24.2 µM
TAG; run 2
  IC50: 12.4 µM
DAPI; mean of runs
  IC50 cytotoxicity (DAPI nuclear signal decrease): > 25 µM (inactive)
DAPI; run 1
  IC50 cytotoxicity (DAPI nuclear signal decrease): > 25 µM
DAPI; run 2
  IC50 cytotoxicity (DAPI nuclear signal decrease): > 25 µM

## Cn1cc(/C=N/n2cnc3scc(-c4ccc(Cl)cc4)c3c2=O)c2ccccc21
TAG; run 1
  IC50: 5.8 µM
TAG; run 2
  IC50: < 0.78 µM
DAPI; run 1
  IC50 cytotoxicity (DAPI nuclear signal decrease): > 25 µM
DAPI; run 2
  IC50 cytotoxicity (DAPI nuclear signal decrease): > 25 µM

## O=C1NC(Cc2ccc(O)cc2)c2nc3ccc(F)cc3c(=O)n2-c2cc3ccccc3cc21 (centres undefined)
TAG; mean of runs
  IC50: 2.45 µM
TAG; run 1
  IC50: 2.11 µM
TAG; run 2
  IC50: 2.79 µM
DAPI; run 1
  IC50 cytotoxicity (DAPI nuclear signal decrease): > 25 µM
DAPI; run 2
  IC50 cytotoxicity (DAPI nuclear signal decrease): > 25 µM
